The pIC50 is the negative decadic logarithm of the IC50, by convention in mol/L.

The structures appear in SMILES notation. pIC50: −log10 of the molar value.

The values below come from ChEMBL document CHEMBL5316378, “DNA-Encoded Macrocyclic Peptide Libraries Enable the Discovery of a Neutral MDM2-p53 Inhibitor” (ACS Med Chem Lett, 2023).

A short description of experiment [1]: Displacement of FAM labeled PMI from human MDM2 (1 to 114 residues) by fluorescence polarization assay.
For experiment [2], the target named is T1, E3 ubiquitin-protein ligase Mdm2 (Homo sapiens, UniProt Q00987). As to the kind of experiment: Displacement of FAM labeled p53 fragment from human MDM2 (1 to 116 residues) incubated for 1 hrs by fluorescence polarization assay. Background: Polarisation of emitted light reports the rotation of a fluorescent probe.
The next experiment has as its system RS4-11. As to the kind of experiment: Anticancer activity against human RS4-11 cells assessed as cell viability incubated for 3 days by CellTiterGlo assay. The format is functional, cell-based. The note with it: RS4-11, 72 h. For orientation: In ATP-based viability assays light output follows the ATP content of the culture.
In experiment [3] the target is T1, E3 ubiquitin-protein ligase Mdm2. In words: Inhibition of human MDM2 incubated for 1 hrs by TR-FRET assay. (In general: Time-resolved FRET reads energy transfer from a long-lived donor to a nearby acceptor.)
Experiment [4] has as its target Tumour suppressor p53/oncoprotein Mdm2 (Homo sapiens, UniProt Q00987). In words: Inhibition of human MDM2 to p53 (unknown origin) protein protein interaction. Type of experiment: protein assay.
For another experiment, the target named is T2, Protein Mdm4 (Homo sapiens, UniProt O15151).
T2 sequence (O15151 whole entry): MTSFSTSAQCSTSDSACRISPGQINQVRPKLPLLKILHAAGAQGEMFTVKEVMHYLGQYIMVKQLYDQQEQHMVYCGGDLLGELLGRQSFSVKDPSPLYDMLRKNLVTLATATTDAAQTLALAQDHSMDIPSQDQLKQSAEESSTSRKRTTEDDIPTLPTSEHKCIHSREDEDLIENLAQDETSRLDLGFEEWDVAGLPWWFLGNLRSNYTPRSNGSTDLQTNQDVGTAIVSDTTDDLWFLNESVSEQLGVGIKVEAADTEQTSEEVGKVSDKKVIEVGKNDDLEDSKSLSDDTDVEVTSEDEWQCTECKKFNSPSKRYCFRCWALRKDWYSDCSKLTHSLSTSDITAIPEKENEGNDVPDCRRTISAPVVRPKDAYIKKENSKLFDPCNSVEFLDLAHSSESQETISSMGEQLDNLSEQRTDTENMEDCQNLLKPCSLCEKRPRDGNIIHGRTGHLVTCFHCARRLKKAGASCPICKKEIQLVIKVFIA
As to the kind of experiment: Inhibition of human MDM4 (1 to 116 residues) incubated for 1 hrs by fluorescence polarization assay.

T1 sequence (Q00987 whole entry, the tested form may be a part): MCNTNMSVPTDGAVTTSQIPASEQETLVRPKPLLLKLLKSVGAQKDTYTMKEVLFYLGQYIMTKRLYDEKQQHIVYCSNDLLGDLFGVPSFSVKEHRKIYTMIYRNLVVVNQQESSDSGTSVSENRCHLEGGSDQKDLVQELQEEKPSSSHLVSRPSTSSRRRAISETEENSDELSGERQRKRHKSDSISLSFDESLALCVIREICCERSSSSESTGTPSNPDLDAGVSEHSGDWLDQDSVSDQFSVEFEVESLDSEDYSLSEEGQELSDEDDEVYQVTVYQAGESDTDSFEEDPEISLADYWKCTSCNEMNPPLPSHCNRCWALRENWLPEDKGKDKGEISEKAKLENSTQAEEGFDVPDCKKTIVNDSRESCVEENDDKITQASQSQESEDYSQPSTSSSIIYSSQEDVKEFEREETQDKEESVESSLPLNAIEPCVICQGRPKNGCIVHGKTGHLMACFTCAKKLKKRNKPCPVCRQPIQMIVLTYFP
Tumour suppressor p53/oncoprotein Mdm2, sequence (P04637 whole entry): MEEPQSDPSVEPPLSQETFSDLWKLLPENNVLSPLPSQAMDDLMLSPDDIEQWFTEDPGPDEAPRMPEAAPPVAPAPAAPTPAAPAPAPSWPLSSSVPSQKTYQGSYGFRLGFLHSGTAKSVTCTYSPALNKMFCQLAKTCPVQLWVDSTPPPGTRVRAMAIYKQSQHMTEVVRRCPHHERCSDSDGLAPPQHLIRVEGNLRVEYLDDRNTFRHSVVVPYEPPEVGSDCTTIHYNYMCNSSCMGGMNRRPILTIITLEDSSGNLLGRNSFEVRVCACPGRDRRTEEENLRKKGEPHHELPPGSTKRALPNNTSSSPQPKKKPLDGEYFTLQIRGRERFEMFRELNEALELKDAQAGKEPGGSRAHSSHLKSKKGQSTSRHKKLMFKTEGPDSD
Tumour suppressor p53/oncoprotein Mdm2, sequence (Q00987 whole entry): as the sequence (Q00987 whole entry, the tested form may be a part) above

As for `CC[C@H](C)[C@@H]1NC(=O)[C@H](C(C)C)NC(=O)Cn2cc(nn2)CC(C(N)=O)NC(=O)[C@@H](Cc2ccsc2)NC(=O)[C@H](Cc2ccc(Cl)cc2)NC(=O)C[C@@H](C(=O)O)NC(=O)[C@H](CCSC)NC(=O)[C@H](CC(=O)O)NC1=O` (stereo partly specified), the pIC50 in experiment [1] is 4.77; in experiment [2], 5.09.
Take `CC(C)[C@@H]1NC(=O)Cn2cc(nn2)C[C@H](C(N)=O)NC(=O)[C@@H]2C[C@@H](CN2C(=O)c2ccccc2)NC(=O)[C@H](Cc2cccc(C(F)(F)F)c2)NC(=O)[C@@H](C(C)C)CNC(=O)CNC(=O)[C@H](Cc2ccccc2)NC(=O)[C@H](Cc2c[nH]c3ccccc23)NC1=O`: the pIC50 is less than 4.30 with RS4-11, 8.05 in experiment [3], 8.05 in experiment [4] and 8.05 at Protein Mdm4.
As for `CC(C)[C@@H]1NC(=O)Cn2cc(nn2)CC(C(N)=O)NC(=O)[C@@H]2C[C@@H](CN2C(=O)c2ccccc2)NC(=O)[C@H](Cc2cccc(C(F)(F)F)c2)NC(=O)[C@@H](C(C)C)CNC(=O)CNC(=O)[C@H](Cc2ccccc2)NC(=O)[C@H](Cc2c[nH]c3ccccc23)NC1=O` (stereo partly specified), the pIC50 is 5.70 in experiment [1] and 7.05 in experiment [2].
With `CC(C)[C@@H]1NC(=O)Cn2cc(nn2)C[C@@H](C(N)=O)NC(=O)[C@@H]2C[C@@H](CN2C(=O)c2ccccc2)NC(=O)[C@H](Cc2cccc(C(F)(F)F)c2)NC(=O)[C@@H](C(C)C)CNC(=O)CNC(=O)[C@H](Cc2ccccc2)NC(=O)[C@H](Cc2c[nH]c3ccccc23)NC1=O`, the pIC50 is less than 4.30 in the experiment with RS4-11, 7.37 in experiment [3] and 7.37 against Protein Mdm4.
